Assay results: US10376513B2, “Heterocyclylamines as PI3K inhibitors” (Incyte Corporation, priority 2011, dated 2019)

Molecular target: PI3Kδ (p110δ/p85α) (Homo sapiens (Human), UniProt O00329)
Assay: PI3Kδ scintillation proximity assay (Example A3)
Type: biochemical
Conditions: 20 μM ATP, 4 nM PI3Kδ, read-out: PI3Kδ SPA IC50
Procedure: [γ-^33P]ATP (10 mCi/mL) was purchased from Perkin-Elmer (Waltham, Mass.). […] PI3Kδ (p110δ/p85α) was purchased from Millipore (Bedford, Mass.). ATP, MgCl2, DTT, EDTA, MOPS and CHAPS were purchased from Sigma-Aldrich (St. Louis, Mo.). Wheat Germ Agglutinin (WGA) YSi SPA Scintillation Beads was purchased from GE healthcare life sciences (Piscataway, N.J.).
The kinase reaction was conducted in polystyrene 384-well matrix white plate from Thermo Fisher Scientific in a final volume of 25 μL. Inhibitors were first diluted serially in DMSO and added to the plate wells before the addition of other reaction components. The final concentration of DMSO in the assay was 0.5%. The PI3K assays were carried out at room temperature in 20 mM MOPS, pH 6.7, 10 mM MgCl2, 5 mM DTT and CHAPS 0.03%. Reactions were initiated by the addition of ATP, the final reaction mixture consisted of 20 μM PIP2, 20 μM ATP, 0.2 μCi [γ-^33P] ATP, 4 nM PI3Kδ. […] 25 mM EDTA, 400 μM ATP. The final concentration of SPA beads was 1.0 mg/mL. After the plate sealing, plates were shaken overnight at room temperature and centrifuged at 1800 rpm for 10 minutes, the radioactivity of the product was determined by scintillation counting on Topcount (Perkin-Elmer). IC50 determination was performed by fitting the curve of percent control activity versus the log of the inhibitor concentration using the GraphPad Prism 3.0 software.

Chain of PI3Kδ (p110δ/p85α) (O00329 whole entry, species assumed): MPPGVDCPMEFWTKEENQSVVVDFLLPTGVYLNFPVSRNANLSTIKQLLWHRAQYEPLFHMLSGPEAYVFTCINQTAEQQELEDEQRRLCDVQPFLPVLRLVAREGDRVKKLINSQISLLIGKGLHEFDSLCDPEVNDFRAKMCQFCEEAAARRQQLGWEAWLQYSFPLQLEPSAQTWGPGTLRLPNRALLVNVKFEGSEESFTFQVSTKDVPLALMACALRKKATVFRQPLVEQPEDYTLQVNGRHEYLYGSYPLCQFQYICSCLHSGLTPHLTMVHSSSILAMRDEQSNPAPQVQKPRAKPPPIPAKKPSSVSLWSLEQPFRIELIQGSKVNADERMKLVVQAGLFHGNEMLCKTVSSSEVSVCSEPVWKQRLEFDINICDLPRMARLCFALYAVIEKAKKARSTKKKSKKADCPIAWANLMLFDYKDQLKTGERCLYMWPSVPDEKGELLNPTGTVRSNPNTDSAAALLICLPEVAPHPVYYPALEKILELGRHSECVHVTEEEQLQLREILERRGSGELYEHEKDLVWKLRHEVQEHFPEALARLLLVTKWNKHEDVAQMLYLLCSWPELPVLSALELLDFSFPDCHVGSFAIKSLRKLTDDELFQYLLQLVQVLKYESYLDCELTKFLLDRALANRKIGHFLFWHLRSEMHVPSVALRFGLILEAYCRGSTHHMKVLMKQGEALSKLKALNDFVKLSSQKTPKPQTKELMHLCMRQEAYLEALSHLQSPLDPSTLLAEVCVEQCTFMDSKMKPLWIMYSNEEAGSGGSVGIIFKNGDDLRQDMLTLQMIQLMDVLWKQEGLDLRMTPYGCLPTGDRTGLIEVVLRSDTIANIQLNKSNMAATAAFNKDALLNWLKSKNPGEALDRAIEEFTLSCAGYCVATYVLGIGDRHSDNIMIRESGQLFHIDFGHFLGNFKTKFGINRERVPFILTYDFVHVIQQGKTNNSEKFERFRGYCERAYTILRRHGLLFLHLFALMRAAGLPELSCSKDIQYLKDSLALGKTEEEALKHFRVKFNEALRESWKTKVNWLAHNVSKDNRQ
Chain of PI3Kδ (p110δ/p85α) (P27986 whole entry partner, species assumed): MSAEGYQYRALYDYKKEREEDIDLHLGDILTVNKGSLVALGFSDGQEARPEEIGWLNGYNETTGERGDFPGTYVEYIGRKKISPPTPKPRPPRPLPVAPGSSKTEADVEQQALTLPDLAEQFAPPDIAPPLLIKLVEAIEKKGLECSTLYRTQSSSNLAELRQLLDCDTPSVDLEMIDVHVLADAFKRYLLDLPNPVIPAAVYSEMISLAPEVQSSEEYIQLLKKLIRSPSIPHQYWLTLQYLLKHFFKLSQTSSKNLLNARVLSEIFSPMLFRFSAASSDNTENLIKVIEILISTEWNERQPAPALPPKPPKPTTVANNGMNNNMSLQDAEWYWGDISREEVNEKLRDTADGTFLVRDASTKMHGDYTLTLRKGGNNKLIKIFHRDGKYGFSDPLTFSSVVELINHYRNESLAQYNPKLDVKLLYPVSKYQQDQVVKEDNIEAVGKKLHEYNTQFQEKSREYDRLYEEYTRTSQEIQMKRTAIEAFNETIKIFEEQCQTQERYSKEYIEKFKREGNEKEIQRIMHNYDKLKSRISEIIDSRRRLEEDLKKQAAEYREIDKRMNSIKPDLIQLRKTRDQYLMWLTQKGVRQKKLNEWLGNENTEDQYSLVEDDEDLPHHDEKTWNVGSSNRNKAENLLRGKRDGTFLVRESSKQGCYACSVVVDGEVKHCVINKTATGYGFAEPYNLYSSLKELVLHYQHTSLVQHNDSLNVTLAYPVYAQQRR

**Q.** Which IC50 does the source give for COc1c(C(C)n2nc(C)c3c(N)ncnc32)cc(Cl)c(F)c1C1CN(C[C@H](C)O)C1 (single isomer, unassigned) [68 (2nd peak)] here?
**A.** < 10 nM

**Q.** For COc1c(C(C)n2nc(C)c3c(N)ncnc32)cc(Cl)c(C)c1-c1cncc(C(=O)N(C)C2CC2)c1 (centres unmarked) [Example 174, 5-(3-(1-(4-Amino-3-methyl-1H-pyrazolo[3,4-d]pyrimidin-1-yl)ethyl)-5-chloro-2-methoxy-6-methylphenyl)-N-cyclopropyl-N-methylnicotinamide bis(2,2,2-trifluoroacetate)], which IC50 is on record?
**A.** < 10 nM

**Q.** How did the IC50 turn out when COc1c(C(C)n2nc(C(F)F)c3c(N)ncnc32)cc(Cl)c(C)c1-c1ccc(C(=O)N(C)C)nc1 (centres unmarked) [Example 191, 5-(3-{1-[4-Amino-3-(difluoromethyl)-1H-pyrazolo[3,4-d]pyrimidin-1-yl]ethyl}-5-chloro-2-methoxy-6-methylphenyl)-N,N-dimethylpyridine-2-carboxamide] was run?
**A.** < 10 nM

**Q.** CCOc1c(C(C)n2nc(C)c3c(N)ncnc32)cc(Cl)c(C)c1-c1cnn(CC(N)=O)c1 (centres unmarked) [Example 203, 2-(4-(3-(1-(4-Amino-3-methyl-1H-pyrazolo[3,4-d]pyrimidin-1-yl)ethyl)-5-chloro-2-ethoxy-6-methylphenyl)-1H-pyrazol-1-yl)acetamide] was tested. Which IC50 did it give?
**A.** < 10 nM

**Q.** CCOc1c(C(C)n2nc(C)c3c(N)ncnc32)cc(Cl)c(C)c1C#N (centres unmarked) [Example 211, 3-[1-(4-Amino-3-methyl-1H-pyrazolo[3,4-d]pyrimidin-1-yl)ethyl]-5-chloro-2-ethoxy-6-methylbenzonitrile] was tested. Which IC50 did it give?
**A.** < 10 nM

**Q.** For COc1c(C(C)n2nc(C)c3c(N)ncnc32)cc(Cl)c(C)c1-c1ccc(OCCO)nc1 (centres unmarked) [Example 188, 2-(5-(3-(1-(4-Amino-3-methyl-1H-pyrazolo[3,4-d]pyrimidin-1-yl)ethyl)-5-chloro-2-methoxy-6-methylphenyl)pyridin-2-yloxy)ethanol], which IC50 is on record?
**A.** < 10 nM

**Q.** Which IC50 does the source give for Cc1c(Cl)cc(C(C)n2nc(C)c3c(N)ncnc32)c(OCC2CC2)c1-c1ccc(C(=O)N(C)C)nc1 (centres unmarked) [Example 190, 5-(3-(1-(4-Amino-3-methyl-1H-pyrazolo[3,4-d]pyrimidin-1-yl)ethyl)-5-chloro-2-(cyclopropylmethoxy)-6-methylphenyl)-N,N-dimethylpicolinamide bis(2,2,2-trifluoroacetate)] here?
**A.** < 10 nM

**Q.** For COc1c(C(C)n2nc(C)c3c(N)ncnc32)cc(Cl)c(C)c1-c1ccc(NCCO)nc1 (centres unmarked) [Example 184, 2-[(5-{3-[1-(4-Amino-3-methyl-1H-pyrazolo[3,4-d]pyrimidin-1-yl)ethyl]-5-chloro-2-methoxy-6-methylphenyl}pyridin-2-yl)amino]ethanol], which IC50 is on record?
**A.** < 10 nM

**Q.** COc1c(C(C)n2nc(C)c3c(N)ncnc32)cc(Cl)c(C)c1CC#N (centres unmarked) [Example 194, {3-[1-(4-Amino-3-methyl-1H-pyrazolo[3,4-d]pyrimidin-1-yl)ethyl]-5-chloro-2-methoxy-6-methylphenyl}acetonitrile] was tested. Which IC50 did it give?
**A.** < 10 nM

**Q.** How did the IC50 turn out when CCOc1c(C(C)n2nc(C)c3c(N)ncnc32)cc(Cl)c(C)c1-c1ccc(C(=O)N(C)C)cn1 (centres unmarked) [Example 208, 6-{3-[1-(4-Amino-3-methyl-1H-pyrazolo[3,4-d]pyrimidin-1-yl)ethyl]-5-chloro-2-ethoxy-6-methylphenyl}-N,N-dimethylnicotinamide bis(trifluoroacetate)] was run?
**A.** < 10 nM

**Q.** How did the IC50 turn out when Cc1c(Cl)cc(C(C)n2nc(C)c3c(N)ncnc32)c(OCC(F)F)c1-c1ccc(C(=O)N(C)C)nc1 (centres unmarked) [Example 189, 5-(3-(1-(4-Amino-3-methyl-1H-pyrazolo[3,4-d]pyrimidin-1-yl)ethyl)-5-chloro-2-(2,2-difluoroethoxy)-6-methylphenyl)-N,N-dimethylpicolinamide bis(2,2,2-trifluoroacetate)] was run?
**A.** < 10 nM
